Source: publication PMC12264943, “Identification of New Human P2X7 Antagonists Using Ligand- and Structure-Based Virtual Screening” (Journal of Chemical Information and Modeling, 2025)
Entries after “also recorded” stand apart in the source; their conditions may differ.

Tests used:
Format in all cases: cell-based
[1] = molecular target: T1, hP2X7 (Homo sapiens, UniProt Q99572); assay: Membrane potential assay with the blue dye (assay optimization); conditions: read-out: ATP EC50
T1 construct: expressed in transfected cells; host or cells: HEK-293, stably transfected (gift of E. Adinolfi's group, Ferrara University)
T1 sequence (Q99572 1-595): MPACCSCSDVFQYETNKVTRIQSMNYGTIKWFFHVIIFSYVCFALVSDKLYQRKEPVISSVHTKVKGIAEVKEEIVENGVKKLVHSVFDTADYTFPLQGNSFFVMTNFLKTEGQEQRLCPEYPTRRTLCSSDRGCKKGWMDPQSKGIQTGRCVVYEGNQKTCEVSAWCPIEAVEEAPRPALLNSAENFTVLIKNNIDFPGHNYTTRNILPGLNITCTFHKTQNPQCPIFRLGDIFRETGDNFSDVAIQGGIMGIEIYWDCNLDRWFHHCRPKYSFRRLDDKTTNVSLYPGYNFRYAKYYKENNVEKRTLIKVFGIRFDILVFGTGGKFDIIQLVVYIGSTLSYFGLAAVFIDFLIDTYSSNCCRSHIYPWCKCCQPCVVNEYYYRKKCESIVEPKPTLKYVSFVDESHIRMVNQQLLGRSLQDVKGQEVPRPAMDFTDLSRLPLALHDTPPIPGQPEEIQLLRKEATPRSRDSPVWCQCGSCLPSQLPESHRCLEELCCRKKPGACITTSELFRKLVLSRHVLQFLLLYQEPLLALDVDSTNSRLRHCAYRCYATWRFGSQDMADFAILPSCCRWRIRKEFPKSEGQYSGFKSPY
Source text: The use of two or more complementary assays for assessing P2X7 modulator activity has been previously applied to help identify false positives as macropore formation is also linked to P2X2 and P2X4. , As P2X receptors are ion channels, they are probably best studied using electrophysiology techniques such as single-cell patch clamp, but these techniques can be laborious when testing libraries of compounds.

[2] = molecular target: T1, hP2X7; assay: Membrane Potential Red (MPR) dye assay, 1321 N1 cells stably transfected with hP2X7
Description: (§1) Astrocytoma 1321 N1 (established by Dr. Gaia Pasqualetto) and HEK-293 (kindly gifted by E. Adinolfi’s group, Ferrara University) both stably transfected with hP2X7, were used to assess the activity of the small molecules selected from the VS. Cells were maintained in DMEM:F12 (PanBiotech) supplemented with 10% FBS, 1% pen-strep, and 150 μg/mL G418 (PanBiotech).
(§2) Cells were plated as described for the YO-PRO 1 dye uptake assay. MPR dye (Molecular Devices) was prepared following the manufacturer’s protocol and diluted 1:10 in ECS-LD buffer. After washing with DPBS, cells were incubated with the dye for 30 min at 37 °C. Fluorescence changes (excitation: 525 nm; emission: 560 nm) were recorded using a Clariostar plate reader during ATP-induced membrane depolarization. Baseline fluorescence was recorded for 5 cycles, and ATP was added via an automated injector (10 μL). Membrane depolarization was quantified as the ratio of the maximal fluorescence change over baseline intensity (Δ(F max–F0)/F0)).
2 Initial screening assays to identify hit compounds. (A) The compounds were screened at 30 μM in the YO-PRO 1 dye uptake using 1321 N1 cells stably transfected with hP2X7. Compound activity was evaluated along a time of 20 min (75 s per cycle) after ATP addition (700 μM). The fluorescence intensity (FI) values of the first 10 cycles were considered for assessing their ability to inhibit hP2X7. Compound responses were normalized to the fluorescent signal recorded on 0.3% DMSO cells treated with 700 μM ATP of each plate. […] (B) Compounds screened at 10 μM using MPR using 1321 N1 cells stably transfected with hP2X7. The compound activity was evaluated for 5 min after ATP addition (15 s per cycle). The fluorescence intensity recorded in the first cycles (before reaching a plateau response) was considered for assessing the small molecule’s ability to inhibit hP2X7. Compound responses were normalized to the fluorescence signal recorded on 0.1% DMSO cells treated with 700 μM ATP of each plate. […] One-way ANOVA and Dunnet test were used for statistical analysis (****P < 0.0001), (*P < 0.02). […]

[3] = molecular target: T1, hP2X7; assay: Membrane Potential Red (MPR) dye assay, HEK-293 cells stably transfected with hP2X7; conditions: 10 μM, 1 mM ATP, hP2X7 HEK-293
Description: as §1, §2
4 Evaluation of compound 2 and 9 analogue activity using YO-PRO 1 and MPR assays. The activity of compound 2 (A and B) and 9 (C and D) analogues was evaluated in YO-PRO 1 (A and C) and MPR (B and D) assays. The compounds were tested at 10 μM and preincubated for either 20 (YO-PRO 1) or 30 min (MPR). The baseline was recorded for 5 cycles before ATP treatment (1 mM). Fluorescence was recorded for 25 (YO-PRO 1) or 5 min (MPR). The data were normalized by setting as 100% for the fluorescence measured from hP2X7 HEK-293 cells incubated with vehicle (0.1% DMSO) and treated with 1 mM ATP and 0% for the fluorescence recorded by the cells not treated with ATP. The data shown correspond to three independent biological replicates (3 technical replicates per experiment; error bars represent the SEM from the mean values of each biological replicate (n = 3)). The statistical analysis was performed with one-way Anova using Dunnett’s function (P**** < 0.0001; P*** < 0.0003; P** < 0.002; P* < 0.02).

Row | EC50 [1] [mM] | EC50 ([2]; MPR assay, red dye, 1321 N1 hP2X7 cells, one biological replicate, read-out: ATP EC50) [mM] | statistically significant inhibition, % of control, initial MPR screen ([2]; compound 10 μM, 700 μM ATP) | SMILES | activity in MPR assay [3]
1 | 2.05 | 0.679 |  | Nc1ncnc2c1ncn2[C@@H]1O[C@H](COP(=O)(O)OP(=O)(O)OP(=O)(O)O)[C@@H](O)[C@H]1O [ATP, reference compound] | 
2 |  |  | 65 % of control | O=C(CSc1ccccc1C(=O)Nc1ccnn1Cc1cccnc1)Nc1ccc2c(c1)OCO2 [Compound 9] | neither compound 9 nor its analogues significantly affected the membrane depolarization; also recorded: lack of inhibition
